{"source": "patent US6656911B2", "about": "“Serine protease inhibitors” (Cortech, Inc., priority 1994, dated 2003)"}
{"target": "T1, human neutrophil elastase (HNE) (Homo sapiens, UniProt P08246)", "T1 sequence (P08246 30-267)": "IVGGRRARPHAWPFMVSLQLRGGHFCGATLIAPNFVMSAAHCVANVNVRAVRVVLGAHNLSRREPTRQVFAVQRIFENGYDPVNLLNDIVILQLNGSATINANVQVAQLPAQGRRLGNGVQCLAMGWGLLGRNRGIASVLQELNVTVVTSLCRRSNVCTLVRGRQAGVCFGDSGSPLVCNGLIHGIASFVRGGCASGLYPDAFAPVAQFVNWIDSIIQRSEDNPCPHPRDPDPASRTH", "assay": "HNE Ki of CE compounds, tested as described in WO 96/16080", "format": "biochemical", "conditions": "read-out: HNE Ki", "units": {"Ki": "nM"}}
{"compound": "CC(=O)N1CC(=O)N(CC(=O)N[C@H](C(=O)c2nnc(Cc3cccc(C)c3)o2)C(C)C)C(=Cc2ccncc2)C1=O", "note": "[CE2114, 1-Acetyl-3-[(4-pyridyl)methylene] piperazine-2,5-dione-N-[1-(2-[5-(3-methylbenzyl)-1,3,4-oxadiazolyl]carbonyl)-2-(S)-methylpropyl]acetamide]", "Ki": 25}
{"compound": "CC(C)C(NC(=O)CN1C(=O)C(c2ccccc2)N(CCN2CCOCC2)C1=O)C(=O)c1noc(Cc2cccc(C(F)(F)F)c2)n1", "note": "[CE2193, 1-(N-Morpholinoethyl)-5-(R,S)-phenyl-2,4-imidazolidindione-N-[1-(3-[5-(3-trifluoromethylbenzyl)-1,2,4-oxadiazolyl]carbonyl)-2-(R,S)-methylpropyl]acetamide]", "Ki": 36}
{"compound": "Cc1cccc(Cc2nnc(C(=O)C(NC(=O)CN3C(=O)CN(C)C(=O)C3c3ccccc3)C(C)C)o2)c1", "note": "[CE2106, 4-[1-Methyl-3-(R,S)-phenylpiperazine-2,5,-dione]-N-[1-(2-[5-(3-methylbenzyl)-1,3,4-oxadiazolyl]carbonyl)-2-(S)-methylpropyl]acetamide]", "Ki": 41}
{"compound": "Cc1cccc(Cc2nnc(C(=O)[C@@H](NC(=O)Cn3c(=O)[nH]n(-c4ccccc4)c3=O)C(C)C)o2)c1", "note": "[CE2166, 1-Phenyl-1,2,4-triazolidine-3,5-dione-N-[1-(2-[5-(3-methylbenzyl)-1,3,4-oxadiazolyl]carbonyl)-2-(S)-methylpropyl]acetamide]", "Ki": 145}
{"compound": "CC(C)[C@H](NC(=O)[C@@H]1CCCN1C(=O)[C@@H](NC(=O)OCc1ccncc1)C(C)C)C(=O)c1noc(Cc2cccc(C(F)(F)F)c2)n1", "note": "[CE2185, 4-Pyridylmethyleneoxycarbonyl-L-valyl-N-[1-(3-[5-(3-trifluoromethylbenzyl)-1,2,4-oxadiazolyl]carbonyl)-2-(S)-methylpropyl]-L-prolinamide]", "Ki": 0.27}
{"compound": "CC(C)[C@H](NC(=O)[C@@H]1CCCN1C(=O)[C@@H](NC(=O)OCc1ccccc1)C(C)C)C(=O)c1noc(Cc2cccc(Oc3ccccc3)c2)n1", "note": "[CE2066, (Benzyloxycarbonyl)-L-valyl-N-[1-(3-[5-(3-phenoxybenzyl)-1,2,4-oxadiazolyl]carbonyl)-2-(S)-methylpropyl]-L-prolinamide]", "Ki": 0.98}
{"compound": "CC(C)C(NC(=O)CN1C(=O)C[S+]([O-])C1Cc1ccccc1)C(=O)c1noc(Cc2cccc(C(F)(F)F)c2)n1", "note": "[CE2137, 2-[2-(R,S)-Benzyl-4-oxothiazolidin-3-yloxide]-N-[1-(3-[5-(3-trifluoromethylbenzyl)-1,2,4-oxadiazolyl]carbonyl)-2-(R,S)-methylpropyl]acetamide]", "Ki": 558}
{"compound": "Cc1cccc(Cc2nnc(C(=O)[C@@H](NC(=O)CN3C(=O)CNC(=O)C3Cc3ccncc3)C(C)C)o2)c1", "note": "(stereo partly drawn) [CE2159, 2-(R,S)-[6-(Methylene-4-pyridyl)piperazine-2,5-dione]-N-[1-(2-[5-(3-methylbenzyl)-1,3,4-oxadiazolyl]carbonyl)-2-(S)-methylpropyl]acetamide]", "Ki": 52}
{"compound": "Cc1cccc(Cc2nc(C(=O)C(NC(=O)[C@@H]3Cc4cccc5c4N3C(=O)[C@@H](N)CC5)C(C)C)no2)c1", "note": "(stereo partly drawn) [CE2220, (2S,5S)-5-Amino-1,2,4,5,6,7-hexahydroazepino-[3.2.1]-indole-4-one-carbonyl-N-[1-(3-[5-(3-methylbenzyl)-1,2,4-oxadiazolyl]carbonyl)-2-(R,S)-methylpropyl]amide]", "Ki": 52}
{"compound": "CC(C)C(NC(=O)CN1C(=O)C(Cc2ccccc2)N(CCN2CCOCC2)C1=O)C(=O)c1noc(Cc2cccc(C(F)(F)F)c2)n1", "note": "[CE2181, 1-(N-Morpholinoethyl)-5-(S)-benzyl-2,4-imidazolidinedione-N-[1-(3-[5-(3-trifluoromethylbenzyl)-1,2,4-oxadiazolyl]carbonyl)-2-(R,S)-methylpropyl]acetamide]", "Ki": 46}
{"compound": "Cc1cccc(Cc2nnc(C(=O)[C@@H](NC(=O)Cn3c(-c4cccnc4)ncc(N)c3=O)C(C)C)o2)c1", "note": "[CE2263, 2-[5-Amino-6-oxo-2-(3-pyridyl)-1,6-dihydro-1-pyrimidinyl]-N-[1-(2-[5-(3-methylbenzyl)-1,3,4-oxadiazolyl]carbonyl)-2-(S)-methylpropyl]acetamide]", "Ki": 0.67}
{"compound": "Cc1cccc(Cc2nnc(C(=O)C(NC(=O)CN3CC(=O)NC[C@H]3c3ccccc3)C(C)C)o2)c1", "note": "(stereo partly drawn) [CE2208, (2-(R)-Phenylpiperazin-5-one)-N-[1-(2-[5-(3-methylbenzyl)-1,3,4-oxadiazolyl]carbonyl)-2-(R,S)-methylpropyl]acetamide]", "Ki": 40}
{"compound": "Cc1cccc(Cc2nnc(C(=O)C(NC(=O)CN3C(=O)CSC3c3ccccc3)C(C)C)o2)c1", "note": "[CE2121, 2-[2-(R,S)-Phenyl-4-oxothiazolidin-3-yl]-N-[1-(2-[5-(3-methylbenzyl)-1,3,4-oxadiazolyl]carbonyl)-2-(S)-methylpropyl]acetamide]", "Ki": 28}
{"compound": "(Benzyloxycarbonyl)-L-valyl-N-[1-(2-[5-(1-napthylenyl)-1,3,4-xadiazolyl]carbonyl)-2-(S)-methylpropyl]-L-prolinamide [CE2124]", "Ki": 0.033}
{"compound": "CC(C)[C@H](NC(=O)[C@@H]1CCCN1C(=O)[C@@H](NC(=O)OCc1ccccc1)C(C)C)C(=O)c1noc(Cc2cc(C(F)(F)F)cc(C(F)(F)F)c2)n1", "note": "[CE2054, (Benzyloxycarbonyl)-L-valyl-N-[1-(3-[5-(3,5-ditrifluoromethylbenzyl)-1,2,4-oxadiazolyl]carbonyl)-2-(S)-methylpropyl]-L-prolinamide]", "Ki": 0.29}
{"compound": "Cc1cccc(Cc2nnc(C(=O)[C@@H](NC(=O)CN3CCC(n4c(=O)[nH]c5ccccc54)CC3)C(C)C)o2)c1", "note": "[CE2212, 3-[1-(4-Piperidine)]-benzimidazolidin-2-one-N-[1-(2-[5-(3-methylbenzyl)-1,3,4-oxadiazolyl]carbonyl)-2-(S)-methylpropyl]acetamide]", "Ki": 124}
{"compound": "CC(C)[C@H](NC(=O)CN1C(=O)CN(Cc2ccccc2)C(=O)[C@@H]1Cc1ccccc1)C(=O)c1noc(CCN(C)C)n1", "note": "[CE2133, 4-[1-Benzyl-3-(S)-benzylpiperazine-2,5,-dione]-N-[1-(3-[5-(2-dimethylaminoethyl)-1,2,4-oxadiazolyl]carbonyl)-2-(S)-methylpropyl]acetamide]", "Ki": 33000}
{"compound": "Cc1cccc(Cc2nnc(C(=O)[C@@H](NC(=O)CN3C(=O)CN(C(=O)OCc4ccccc4)C[C@H]3Cc3ccccc3)C(C)C)o2)c1", "note": "[CE2190, [1-Benzyloxycarbonyl-5-(R)-benzylpipeazin-3-one]-N-[1-(2-[5-(3-methylbenzyl)-1,3,4-oxadiazolyl]carbonyl)-2-(S)-methylpropyl]acetamide]", "Ki": 29}
{"compound": "CC(C)[C@H](NC(=O)Cn1c(-c2ccc(F)cc2)ncc(N)c1=O)C(=O)c1noc(Cc2cccc(C(F)(F)F)c2)n1", "note": "[CE2090]", "Ki": 2.7}
{"compound": "CC(C)[C@H](NC(=O)[C@@H]1CCCN1C(=O)[C@@H](NC(=O)OCc1ccccc1)C(C)C)C(=O)c1noc(Cc2cc(-c3ccccc3)cc(-c3ccccc3)c2)n1", "note": "[CE2096, (Benzyloxycarbonyl)-L-valyl-N-[1-(3-[5-(3,5-diphenylbenzyl)-1,2,4-oxadiazolyl]carbonyl)-2-(S)-methylpropyl]-L-prolinamide]", "Ki": 0.79}
{"compound": "CC(C)[C@H](NC(=O)[C@@H]1CCCN1C(=O)[C@@H](NC(=O)OCc1ccccc1)C(C)C)C(=O)c1noc(CC2CCCCC2)n1", "note": "[CE2069]", "Ki": 4.4}
{"compound": "Cc1cc(C)cc(Cc2nc(C(=O)[C@@H](NC(=O)[C@@H]3CCCN3C(=O)[C@@H](NC(=O)OCc3ccccc3)C(C)C)C(C)C)no2)c1", "note": "[CE2052, (Benzyloxycarbonyl)-L-valyl-N-[1-(3-[5-(3,5-dimethylbenzyl)-1,2,4-oxadiazolyl)carbonyl)-2-(S)-methylpropyl]-L-prolinamide]", "Ki": 0.37}
{"compound": "Cc1cccc(Cc2nnc(C(=O)[C@@H](NC(=O)Cn3c(=O)c4ccccc4n(C(=O)c4ccccc4)c3=O)C(C)C)o2)c1", "note": "[CE2140, (1-Benzoyl-3,8-quinazolinedione)-N-[1-(2-[5-(3-methylbenzyl)-1,3,4-oxadiazolyl]carbonyl)-2-(S)-methylpropyl]acetamide]", "Ki": 204}
{"compound": "Cc1cccc(Cc2nnc(C(=O)C(NC(=O)CN3C(=O)CCCC3c3ccc(F)cc3)C(C)C)o2)c1", "note": "[CE2087, 6-[4-Fluorophenyl]-ε-lactam-N-[1-(2-[5-(3-methylbenzyl)-1,3,4-oxadiazolyl]carbonyl)-2-(S)-methylpropyl]acetamide]", "Ki": 20}
{"compound": "Cc1cccc(Cc2nnc(C(=O)[C@@H](NC(=O)[C@@H]3CCCN3C(=O)[C@@H](NC(=O)OC(C)C)C(C)C)C(C)C)o2)c1", "note": "[CE2202, Isopropyloxycarbonyl-L-valyl-N-[1-(2-[5-(3-methylbenzyl)-1,3,4-oxadiazolyl]carbonyl)-2-(S)-methylpropyl]-L-prolinamide]", "Ki": 0.12}
{"compound": "CC(C)[C@H](NC(=O)CN1C(=O)NC(c2ccc(N(C)C)cc2)C1=O)C(=O)c1noc(Cc2cccc(C(F)(F)F)c2)n1", "note": "(stereo partly drawn) [CE2200, [4-(R,S)-(4-Dimethylaminophenyl)]-2,5-imidazolidinedione-N-[1-(3-[5-(3-trifluoromethylbenzyl)-1,2,4-oxadiazolyl]carbonyl)-2-(S)-methylpropyl]acetamide]", "Ki": 13.7}
{"compound": "Cc1cccc(Cc2nnc(C(=O)[C@@H](NC(=O)Cn3c(=O)c(NC(=O)OCc4ccccc4)cc4ccccc43)C(C)C)o2)c1", "note": "[CE2108, 3-[(Benzyloxycarbonyl)amino]-quinoline-2-one-N-[1-(2-[5-(3-methylbenzyl)-1,3,4-oxadiazolyl]carbonyl)-2-(S)-methylpropyl]acetamide]", "Ki": 10.5}
